In PubChem BioAssay (NCI) one finds GI50 and TGI data, which are given here for three compounds.

Each structure is given as a SMILES string.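 Five compound concentrations were applied to cells in 96-well plates for 48 hours; endpoints were derived by simple linear interpolation of the resulting dose-response curve. GI50 = concentration required for 50% inhibition of growth. TGI: concentration producing complete growth inhibition.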 Where a SMILES comes first, the peptide text is derived from it. [ ]: non-standard residue; d: D form. NMeY = CN[C@@H](Cc1ccc(O)cc1)C(=O)O; dNMeF = CN[C@H](Cc1ccccc1)C(=O)O; Sar = CNCC(=O)O Bounds are passed on as bounds.

Test systems include A549 NSCLC; CCRF-CEM leukemia; IGROV1 ovarian; NCI-H23 lung; NCI/ADR-RES ovarian; RPMI-8226 leukemia; SK-MEL-5 melanoma; SW-620 colon; U251 CNS; UACC-62 melanoma.
Test in all cases: inhibition of tumour cell growth, NCI panel, 48 h

With `CC[C@H](C)[C@@H]1NC(=O)[C@H](Cc2ccc(O)cc2)N(C)C(=O)[C@H](Cc2ccccc2)NC(=O)CN(C)C(=O)[C@@H]2CCCN2C(=O)[C@@H](Cc2ccccc2)N(C)C(=O)[C@H](CC(C)C)NC1=O` (cyclo(F[NMeY]IL[dNMeF]P[Sar])), the GI50 in the assay with A549 NSCLC was 0.301 µM; in the assay on CCRF-CEM leukemia, 0.279 µM; in the assay on IGROV1 ovarian, 0.21 µM; with NCI-H23 lung, 0.197 µM; with NCI/ADR-RES ovarian it was 14 µM; in the assay with RPMI-8226 leukemia, 0.229 µM. In addition, the GI50 in the assay on SK-MEL-5 melanoma was 0.485 µM; in the assay with SW-620 colon, 0.199 µM; in the assay on U251 CNS it was 0.146 µM; in the assay with UACC-62 melanoma, 0.367 µM. Besides, the TGI in the assay on A549 NSCLC is 4.29 µM; with CCRF-CEM leukemia it was 11.7 µM; with IGROV1 ovarian, 5.2 µM; in the assay on NCI-H23 lung, 5.95 µM; in the assay with NCI/ADR-RES ovarian, greater than 100 µM; with RPMI-8226 leukemia, 1.2 µM. The TGI in the assay with SK-MEL-5 melanoma worked out at 1.85 µM; in the assay on SW-620 colon it was 5.32 µM; in the assay with U251 CNS, 7.26 µM; in the assay with UACC-62 melanoma, 2.75 µM.
For `COc1cccc(-n2ncc3c(N/N=C/c4ccc(S(C)(=O)=O)cc4)ncnc32)c1`, the GI50 in the assay with A549 NSCLC is 9.24 µM; with CCRF-CEM leukemia, greater than 25 µM; in the assay with IGROV1 ovarian it was 11 µM; in the assay on NCI-H23 lung it was 11.9 µM; in the assay with NCI/ADR-RES ovarian, 9.1 µM; in the assay on RPMI-8226 leukemia, greater than 22.9 µM. The GI50 was 3.45 µM with SK-MEL-5 melanoma, greater than 25 µM with SW-620 colon, 4.99 µM in the assay on U251 CNS and 3.47 µM with UACC-62 melanoma. The TGI with A549 NSCLC, with CCRF-CEM leukemia, in the assay on IGROV1 ovarian, with NCI-H23 lung, with NCI/ADR-RES ovarian and in the assay with RPMI-8226 leukemia was greater than 25 µM each time. The TGI in the assay with SK-MEL-5 melanoma was greater than 15.8 µM; in the assay on SW-620 colon, greater than 25 µM; with U251 CNS it was 17.6 µM; with UACC-62 melanoma, greater than 16.9 µM.
Take `C#C[C@@]1(O)[C@@H](CO)O[C@@H](n2ccc3c(N)ncnc32)[C@@H]1O`: the GI50 with A549 NSCLC was 1.31 µM; in the assay on CCRF-CEM leukemia, 2.3 µM; with IGROV1 ovarian it was 1.43 µM; in the assay on NCI-H23 lung, 1.18 µM; in the assay with NCI/ADR-RES ovarian, 0.791 µM; in the assay with RPMI-8226 leukemia, 0.777 µM. In addition, the GI50 was 1.56 µM in the assay on SK-MEL-5 melanoma, 0.493 µM in the assay with SW-620 colon, 2.44 µM in the assay on U251 CNS and 1.79 µM in the assay with UACC-62 melanoma. Besides, the TGI with A549 NSCLC was greater than 100 µM; in the assay on CCRF-CEM leukemia, greater than 100 µM; with IGROV1 ovarian it was 5.85 µM; in the assay on NCI-H23 lung it was 4.32 µM; in the assay on NCI/ADR-RES ovarian it was 7.28 µM; in the assay on RPMI-8226 leukemia it was greater than 100 µM. Moreover, the TGI in the assay on SK-MEL-5 melanoma was 2.96 µM; with SW-620 colon it was 12.7 µM; with U251 CNS, 11.8 µM; with UACC-62 melanoma, 4.48 µM.
